From PubChem BioAssay AID248 (DTP/NCI, 2004)
Several values for one entry are separate records, joined by “and”; a condition that tells them apart may be missing. Equal entries are not always repeated. Toxic doses and inconclusive results are not listed. No stated cut-off is given here; in the data, active means T/C of 150% or more; inactive means T/C below 125%.

Tested on: L1210 leukemia ip in BDF1 mice, survival T/C
Experiment: NCI In Vivo Anticancer Drug Screen. Data for tumor model L1210 Leukemia (intraperitoneal) in B6D2F1 (BDF1) mice
Settings: higher = longer survival
Method in brief: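 Read-out is survival time, reported as the treated-group measurement over the vehicle-control measurement.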

[1] = endpoint: mean survival time, dose: 100.0 mg/kg/injection, schedule: Q01DX001 (ip), vehicle: carboxymethylcellulose (CMC)
[2] = endpoint: mean survival time, dose: 200.0 mg/kg/injection, schedule: Q01DX001 (ip), vehicle: carboxymethylcellulose (CMC)
[3] = endpoint: mean survival time, dose: 400.0 mg/kg/injection, schedule: Q01DX001 (ip), vehicle: carboxymethylcellulose (CMC)
[4] = endpoint: mean survival time, dose: 100.0 mg/kg/injection, schedule: Q01DX009 (ip), vehicle: saline with Tween-80
[5] = endpoint: mean survival time, dose: 100.0 mg/kg/injection, schedule: Q04DX003 (ip), vehicle: Klucel (hydroxypropylcellulose) (HPC)
[6] = endpoint: mean survival time, dose: 200.0 mg/kg/injection, schedule: Q01DX009 (ip), vehicle: saline with Tween-80
[7] = endpoint: mean survival time, dose: 200.0 mg/kg/injection, schedule: Q04DX003 (ip), vehicle: Klucel (hydroxypropylcellulose) (HPC)
[8] = endpoint: mean survival time, dose: 400.0 mg/kg/injection, schedule: Q01DX009 (ip), vehicle: saline with Tween-80
[9] = endpoint: mean survival time, dose: 400.0 mg/kg/injection, schedule: Q04DX003 (ip), vehicle: Klucel (hydroxypropylcellulose) (HPC)
[10] = endpoint: mean survival time, dose: 50.0 mg/kg/injection, schedule: Q01DX001 (ip), vehicle: saline
[11] = endpoint: mean survival time, dose: 100.0 mg/kg/injection, schedule: Q01DX001 (ip), vehicle: saline
[12] = endpoint: mean survival time, dose: 200.0 mg/kg/injection, schedule: Q01DX001 (ip), vehicle: saline
[13] = endpoint: mean survival time, dose: 400.0 mg/kg/injection, schedule: Q01DX001 (ip), vehicle: saline
[14] = endpoint: mean survival time, dose: 100.0 mg/kg/injection, schedule: Q01DX009 (ip), vehicle: saline
[15] = endpoint: mean survival time, dose: 200.0 mg/kg/injection, schedule: Q01DX009 (ip), vehicle: saline
[16] = endpoint: mean survival time, dose: 100.0 mg/kg/injection, schedule: Q01DX009 (ip), vehicle: Klucel (hydroxypropylcellulose) (HPC)
[17] = endpoint: mean survival time, dose: 400.0 mg/kg/injection, schedule: Q01DX009 (ip), vehicle: Klucel (hydroxypropylcellulose) (HPC)
[18] = endpoint: mean survival time, dose: 100.0 mg/kg/injection, schedule: Q04DX002 (ip), vehicle: saline with Tween-80

Measured: T/C

Cn1ncc2c(N)ncnc21
inactive: endpoint: mean survival time, dose: 6.0 mg/kg/injection, schedule: Q01DX015 (ip), vehicle: carboxymethylcellulose (CMC) 108 % of control | endpoint: mean survival time, dose: 12.0 mg/kg/injection, schedule: Q01DX015 (ip), vehicle: carboxymethylcellulose (CMC) 101 % of control | endpoint: mean survival time, dose: 12.5 mg/kg/injection, schedule: Q01DX009 (ip), vehicle: Klucel (hydroxypropylcellulose) (HPC) 102 % of control | endpoint: mean survival time, dose: 25.0 mg/kg/injection, schedule: Q01DX009 (ip), vehicle: Klucel (hydroxypropylcellulose) (HPC) 107 % of control | endpoint: mean survival time, dose: 25.0 mg/kg/injection, schedule: Q01DX015 (ip), vehicle: carboxymethylcellulose (CMC) 108 % of control | endpoint: mean survival time, dose: 50.0 mg/kg/injection, schedule: Q01DX009 (ip), vehicle: Klucel (hydroxypropylcellulose) (HPC) 91 % of control | endpoint: mean survival time, dose: 50.0 mg/kg/injection, schedule: Q01DX015 (ip), vehicle: carboxymethylcellulose (CMC) 101 % of control | [1] 103 % of control | [2] 98 % of control | [3] 106 % of control

CC(=O)c1ccccc1OS(=O)(=O)c1ccc([N+](=O)[O-])cc1
inactive: [4] 105 % of control | [5] 105 % of control | [6] 111 % of control | [7] 100 % of control | [8] 114 % of control | [9] 103 % of control

O=C(N[C@H](CO)[C@H](O)c1ccc([N+](=O)[O-])cc1)C(Cl)Cl
inactive: endpoint: mean survival time, dose: 316.0 mg/kg/injection, schedule: Q01DX001 (ip), vehicle: carboxymethylcellulose (CMC) 106 % of control | endpoint: mean survival time, dose: 475.0 mg/kg/injection, schedule: Q01DX001 (ip), vehicle: carboxymethylcellulose (CMC) 115 % of control | endpoint: mean survival time, dose: 720.0 mg/kg/injection, schedule: Q01DX001 (ip), vehicle: carboxymethylcellulose (CMC) 113 % of control | endpoint: median survival time, dose: 274.4 mg/kg/injection, schedule: Q01DX001 (ip), vehicle: saline 105 % of control | endpoint: median survival time, dose: 392.0 mg/kg/injection, schedule: Q01DX001 (ip), vehicle: saline 100 % of control and 101 % of control | endpoint: median survival time, dose: 560.0 mg/kg/injection, schedule: Q01DX001 (ip), vehicle: saline 93 % of control and 94 % of control and 95 % of control | endpoint: median survival time, dose: 560.0 mg/kg/injection, schedule: Q03DX001 (ip), vehicle: saline 88 % of control | endpoint: median survival time, dose: 800.0 mg/kg/injection, schedule: Q01DX001 (ip), vehicle: saline 99 % of control and 100 % of control and 102 % of control | endpoint: median survival time, dose: 800.0 mg/kg/injection, schedule: Q03DX001 (ip), vehicle: saline 100 % of control

COc1ccccc1CN1CCCN(Cc2ccccc2OC)C1c1ccccc1
inactive: [10] 101 % of control | [11] 109 % of control | [12] 90 % of control | [13] 90 % of control

c1ccc2cc3cc4cc5ccccc5cc4cc3cc2c1
inactive: endpoint: mean survival time, dose: 50.0 mg/kg/injection, schedule: Q01DX009 (ip), vehicle: saline 97 % of control | [14] 101 % of control | [15] 101 % of control

CCOc1ccccc1NC1=C(OC)C(=O)C(Nc2ccccc2OCC)=C(OC)C1=O
inactive: endpoint: mean survival time, dose: 50.0 mg/kg/injection, schedule: Q01DX001 (ip), vehicle: carboxymethylcellulose (CMC) 97 % of control | [1] 103 % of control | [16] 95 % of control | [5] 98 % of control | [2] 101 % of control | [7] 90 % of control | [3] 113 % of control | [17] 90 % of control | [9] 101 % of control

O=C(/C(=C\c1ccccc1)CO)c1ccccc1
inactive: endpoint: mean survival time, dose: 12.5 mg/kg/injection, schedule: Q01DX009 (ip), vehicle: saline with Tween-80 89 % of control | endpoint: mean survival time, dose: 25.0 mg/kg/injection, schedule: Q01DX009 (ip), vehicle: saline with Tween-80 89 % of control | endpoint: mean survival time, dose: 50.0 mg/kg/injection, schedule: Q01DX009 (ip), vehicle: saline with Tween-80 87 % of control | endpoint: mean survival time, dose: 62.0 mg/kg/injection, schedule: Q01DX009 (ip), vehicle: saline with Tween-80 106 % of control

CCN(CC)CCNC(Cc1ccccc1)c1ccc(OCc2ccccc2)cc1 (configuration not stated)
inactive: [1] 100 % of control | [2] 96 % of control | [3] 96 % of control

Nc1ccc2[nH]c3ccccc3c2c1
inactive: [16] 95 % of control | [5] 104 % of control | endpoint: mean survival time, dose: 200.0 mg/kg/injection, schedule: Q01DX009 (ip), vehicle: Klucel (hydroxypropylcellulose) (HPC) 95 % of control | [7] 91 % of control | [17] 92 % of control | [9] 94 % of control

Cc1ccc(S(=O)NOCCCCONS(=O)c2ccc(C)cc2)cc1 (configuration not stated)
inactive: endpoint: mean survival time, dose: 100.0 mg/kg/injection, schedule: Q01DX001 (ip), vehicle: saline with Tween-80 98 % of control | [4] 100 % of control and 89 % of control | [18] 96 % of control and 91 % of control | endpoint: mean survival time, dose: 200.0 mg/kg/injection, schedule: Q01DX001 (ip), vehicle: saline with Tween-80 95 % of control | [6] 86 % of control and 87 % of control | endpoint: mean survival time, dose: 200.0 mg/kg/injection, schedule: Q04DX002 (ip), vehicle: saline with Tween-80 93 % of control and 98 % of control | endpoint: mean survival time, dose: 400.0 mg/kg/injection, schedule: Q01DX001 (ip), vehicle: saline with Tween-80 106 % of control | [8] 90 % of control | endpoint: mean survival time, dose: 400.0 mg/kg/injection, schedule: Q04DX002 (ip), vehicle: saline with Tween-80 104 % of control and 105 % of control

O=c1[nH][n+]([O-])cc2c(C(O)=C(O)O)c[nH]c12
inactive: endpoint: mean survival time, dose: 25.0 mg/kg/injection, schedule: Q04DX002 (ip), vehicle: saline with Tween-80 94 % of control | endpoint: mean survival time, dose: 50.0 mg/kg/injection, schedule: Q04DX002 (ip), vehicle: saline with Tween-80 98 % of control | [18] 105 % of control

c1ccc(C([CH2][Hg][CH2]C(c2ccccc2)c2ccccc2)c2ccccc2)cc1
inactive: [14] 101 % of control | [5] 97 % of control | [15] 96 % of control | [7] 93 % of control | endpoint: mean survival time, dose: 400.0 mg/kg/injection, schedule: Q01DX009 (ip), vehicle: saline 101 % of control | [9] 90 % of control

CC1CCCC1=O (configuration not stated)
inactive: [10] 96 % of control | [11] 93 % of control | [12] 93 % of control | [13] 93 % of control

NC(CSS(=O)(=O)O)=NCCc1ccccc1
inactive: endpoint: mean survival time, dose: 3.13 mg/kg/injection, schedule: Q04DX002 (ip), vehicle: Klucel (hydroxypropylcellulose) (HPC) 103 % of control | endpoint: mean survival time, dose: 6.25 mg/kg/injection, schedule: Q04DX002 (ip), vehicle: Klucel (hydroxypropylcellulose) (HPC) 100 % of control | endpoint: mean survival time, dose: 12.5 mg/kg/injection, schedule: Q04DX002 (ip), vehicle: Klucel (hydroxypropylcellulose) (HPC) 100 % of control

COc1ccc(/C=C2/CN(c3ccc(C(=O)O)cc3)C(=O)C2=O)cc1
inactive: [11] 95 % of control | [12] 98 % of control | [13] 98 % of control

O=C1OC(OC(=O)c2ccccc2)C(Br)=C1Br (configuration not stated)
inactive: [5] 98 % of control | [7] 104 % of control

O=C1CCCC/C1=C/c1ccco1
inactive: endpoint: mean survival time, dose: 100.0 mg/kg/injection, schedule: Q04DX002 (ip), vehicle: Klucel (hydroxypropylcellulose) (HPC) 95 % of control | endpoint: mean survival time, dose: 200.0 mg/kg/injection, schedule: Q04DX002 (ip), vehicle: Klucel (hydroxypropylcellulose) (HPC) 99 % of control | endpoint: mean survival time, dose: 400.0 mg/kg/injection, schedule: Q04DX002 (ip), vehicle: Klucel (hydroxypropylcellulose) (HPC) 99 % of control
